Reference: ChEMBL document CHEMBL3217491, “Design, synthesis and biological evaluation of imidazopyridine/pyrimidine-chalcone derivatives as potential anticancer agents” (2010)
The source made the active and inactive calls. No cut-off for these calls is given here.

Legend:
[1] = test system: NCI-H322M; assay: Growth inhibition of human NCI-H322M cells after 48 hrs by SRB assay; type: functional
[2] = test system: NCI-H460; assay: Growth inhibition of human NCI-H460 cells after 48 hrs by SRB assay; type: functional; details: NCI-H460, 48 h
[3] = test system: CCRF-CEM; assay: Growth inhibition of human CCRF-CEM cells after 48 hrs by SRB assay; type: functional
[4] = test system: COLO 205; assay: Growth inhibition of human COLO205 cells after 48 hrs by SRB assay; type: functional; details: COLO 205, 48 h
[5] = Growth inhibition of human OVCAR4 cells after 48 hrs by SRB assay; type: functional; details: OVCAR-4, 48 h
[6] = test system: 786-0; assay: Growth inhibition of human 786-0 cells after 48 hrs by SRB assay; type: functional; details: 786-0, 48 h
[7] = test system: SW-620; assay: Growth inhibition of human SW620 cells after 48 hrs by SRB assay; type: functional; details: SW-620, 48 h
[8] = test system: SNB-19; assay: Growth inhibition of human SNB19 cells after 48 hrs by SRB assay; type: functional; details: SNB-19, 48 h
[9] = Growth inhibition of human LOXIMVI cells after 48 hrs by SRB assay; type: functional; details: LOX IMVI
[10] = test system: MDA-MB-468; assay: Growth inhibition of human MDA-MB-468 cells after 48 hrs by SRB assay; type: functional; details: MDA-MB-468, 48 h
[11] = Growth inhibition of human UACC62 cells after 48 hrs by SRB assay; type: functional; details: UACC-62, 48 h
[12] = test system: MDA-MB-435; assay: Growth inhibition of human MDA-MB-435 cells after 48 hrs by SRB assay; type: functional; details: MDA-MB-435, 48 h
[13] = test system: MCF7; assay: Cell cycle arrest in human MCF7 cells assessed as accumulation at G2/M phase at 4 uM after 24 hrs by propidium iodide staining-based flow cytometry (reference value: 15.79%); type: functional
[14] = test system: NCI-H522; assay: Growth inhibition of human NCI-H522 cells after 48 hrs by SRB assay; type: functional; details: NCI-H522, 48 h
[15] = test system: NCI-H23; assay: Growth inhibition of human NCI-H23 cells after 48 hrs by SRB assay; type: functional; details: NCI-H23, 48 h
[16] = Growth inhibition of human EKVX cells after 48 hrs by SRB assay; type: functional
[17] = test system: A498; assay: Growth inhibition of human A498 cells after 48 hrs by SRB assay; type: functional; details: A498, 48 h
[18] = test system: MCF7; assay: Growth inhibition of human MCF7 cells after 48 hrs by SRB assay; type: functional; details: MCF7, 48 h
[19] = test system: SR; assay: Growth inhibition of human SR cells after 48 hrs by SRB assay; type: functional
[20] = test system: SK-MEL-2; assay: Growth inhibition of human SK-MEL-2 cells after 48 hrs by SRB assay; type: functional; details: SK-MEL-2, 48 h
[21] = test system: RPMI-8226; assay: Growth inhibition of human RPMI8226 cells after 48 hrs by SRB assay; type: functional; details: RPMI-8226, 48 h
[22] = test system: SN12C; assay: Growth inhibition of human SN12C cells after 48 hrs by SRB assay; type: functional
[23] = test system: K562; assay: Growth inhibition of human K562 cells after 48 hrs by SRB assay; type: functional; details: K562, 48 h
[24] = Growth inhibition of human SF539 cells after 48 hrs by SRB assay; type: functional; details: SF-539, 48 h
[25] = test system: SF-268; assay: Growth inhibition of human SF268 cells after 48 hrs by SRB assay; type: functional; details: SF-268, 48 h
[26] = test system: SK-MEL-28; assay: Growth inhibition of human SK-MEL-28 cells after 48 hrs by SRB assay; type: functional; details: SK-MEL-28, 48 h
[27] = Growth inhibition of human UACC257 cells after 48 hrs by SRB assay; type: functional; details: UACC-257, 48 h
[28] = Growth inhibition of human BT549 cells after 48 hrs by SRB assay; type: functional; details: BT-549, 48 h
[29] = test system: TK-10; assay: Growth inhibition of human TK10 cells after 48 hrs by SRB assay; type: functional; details: TK-10, 48 h
[30] = test system: M14; assay: Growth inhibition of human M14 cells after 48 hrs by SRB assay; type: functional; details: M14, 48 h
[31] = Growth inhibition of human SF295 cells after 48 hrs by SRB assay; type: functional; details: SF-295, 48 h
[32] = test system: MDA-MB-231; assay: Growth inhibition of human MDA-MB-231 cells after 48 hrs by SRB assay; type: functional; details: MDA-MB-231, 48 h
[33] = test system: HT-29; assay: Growth inhibition of human HT-29 cells after 48 hrs by SRB assay; type: functional; details: HT-29, 48 h
[34] = Growth inhibition of human HCC2998 cells after 48 hrs by SRB assay; type: functional; details: HCC 2998, 48 h
[35] = Growth inhibition of human MOLT4 cells after 48 hrs by SRB assay; type: functional; details: MOLT-4, 48 h
[36] = test system: SK-MEL-5; assay: Growth inhibition of human SK-MEL-5 cells after 48 hrs by SRB assay; type: functional; details: SK-MEL-5, 48 h
[37] = test system: A549; assay: Growth inhibition of human A549 cells after 48 hrs by SRB assay; type: functional; details: A549, 48 h
[38] = Growth inhibition of human HOP92 cells after 48 hrs by SRB assay; type: functional; details: HOP-92, 48 h
[39] = test system: HL-60(TB); assay: Growth inhibition of human HL-60(TB) cells after 48 hrs by SRB assay; type: functional; details: HL-60, 48 h
[40] = Growth inhibition of human NCI-ADR-RES cells after 48 hrs by SRB assay; type: functional
[41] = Growth inhibition of human RXF393 cells after 48 hrs by SRB assay; type: functional; details: RXF 393, 48 h
[42] = test system: HOP-62; assay: Growth inhibition of human HOP62 cells after 48 hrs by SRB assay; type: functional; details: HOP-62, 48 h
[43] = Growth inhibition of human OVCAR8 cells after 48 hrs by SRB assay; type: functional; details: OVCAR-8, 48 h
[44] = Growth inhibition of human UO31 cells after 48 hrs by SRB assay; type: functional; details: UO-31, 48 h
[45] = Growth inhibition of human OVCAR5 cells after 48 hrs by SRB assay; type: functional; details: OVCAR-5, 48 h
[46] = Growth inhibition of human OVCAR3 cells after 48 hrs by SRB assay; type: functional; details: OVCAR-3, 48 h
[47] = test system: KM12; assay: Growth inhibition of human KM12 cells after 48 hrs by SRB assay; type: functional; details: KM12, 48 h
[48] = test system: DU-145; assay: Growth inhibition of human DU145 cells after 48 hrs by SRB assay; type: functional; details: DU-145, 48 h
[49] = test system: ACHN; assay: Growth inhibition of human ACHN cells after 48 hrs by SRB assay; type: functional
[50] = test system: CAKI-1; assay: Growth inhibition of human Caki1 cells after 48 hrs by SRB assay; type: functional; details: CAKI-1, 48 h
[51] = Growth inhibition of human HCT15 cells after 48 hrs by SRB assay; type: functional; details: HCT-15, 48 h
[52] = test system: SNB-75; assay: Growth inhibition of human SNB75 cells after 48 hrs by SRB assay; type: functional; details: SNB-75, 48 h
[53] = test system: IGROV-1; assay: Growth inhibition of human IGROV1 cells after 48 hrs by SRB assay; type: functional; details: IGROV-1, 48 h
[54] = test system: MCF7; assay: Cell cycle arrest in human MCF7 cells assessed as accumulation at S phase at 4 uM after 24 hrs by propidium iodide staining-based flow cytometry (reference value: 20.17%); type: functional
[55] = test system: SK-OV-3; assay: Growth inhibition of human SKOV3 cells after 48 hrs by SRB assay; type: functional; details: SK-OV-3, 48 h
[56] = test system: MCF7; assay: Cell cycle arrest in human MCF7 cells assessed as accumulation at G0/G1 phase at 4 uM after 24 hrs by propidium iodide staining-based flow cytometry (reference value: 64.04%); type: functional
[57] = test system: NCI-H226; assay: Growth inhibition of human NCI-H226 cells after 48 hrs by SRB assay; type: functional; details: NCI-H226, 48 h
[58] = test system: T47D; assay: Growth inhibition of human T47D cells after 48 hrs by SRB assay; type: functional
[59] = test system: U-251; assay: Growth inhibition of human U251 cells after 48 hrs by SRB assay; type: functional; details: U-251, 48 h
[60] = test system: MCF7; assay: Growth inhibition of human MCF7 cells assessed as cell viability at 4 uM after 24 hrs by MTT assay; type: functional, cell-based
[61] = Growth inhibition of human Hs578T cells after 48 hrs by SRB assay; type: functional; details: Hs-578T
[62] = test system: PC-3; assay: Growth inhibition of human PC3 cells after 48 hrs by SRB assay; type: functional; details: PC-3, 48 h
[63] = test system: HCT-116; assay: Growth inhibition of human HCT116 cells after 48 hrs by SRB assay; type: functional; details: HCT-116, 48 h
[64] = test system: Malme-3M; assay: Growth inhibition of human MALME-3M cells after 48 hrs by SRB assay; type: functional

COc1cc(C(=O)/C=C/c2c(-c3ccc(F)cc3)nc3ncccn23)cc(OC)c1OC
GI50 [1]: 2.07 µM
GI50 [2]: 1.59 µM
GI50 [3]: 4.05 µM
GI50 [4]: 1.7 µM
GI50 [5]: 2.93 µM
GI50 [6]: 2.76 µM
GI50 [7]: 2.09 µM
GI50 [8]: 3.12 µM
GI50 [9]: 1.57 µM
GI50 [10]: 2.75 µM
GI50 [11]: 1.74 µM
GI50 [12]: 2.36 µM
Activity [13]: 3.95%
GI50 [14]: 2.87 µM
GI50 [15]: 1.58 µM
GI50 [16]: 2.71 µM
GI50 [17]: 2.2 µM
GI50 [18]: 1.61 µM
GI50 [19]: 2.28 µM
GI50 [20]: 2.38 µM
GI50 [21]: 2.56 µM
GI50 [22]: 2.26 µM
GI50 [23]: 3.03 µM
GI50 [24]: 1.55 µM
GI50 [25]: 1.9 µM
GI50 [26]: 3.68 µM
GI50 [27]: 3.73 µM
GI50 [28]: 1.8 µM
GI50 [29]: 3.25 µM
GI50 [30]: 2.16 µM
GI50 [31]: 2.43 µM
GI50 [32]: 2.99 µM
GI50 [33]: 2.52 µM
GI50 [34]: 1.77 µM
GI50 [35]: 3.75 µM
GI50 [36]: 2.22 µM
GI50 [37]: 3.34 µM
GI50 [38]: 1.77 µM
GI50 [39]: 3.33 µM
GI50 [40]: 1.58 µM
GI50 [41]: 1.44 µM
GI50 [42]: 3.12 µM
GI50 [43]: 2.69 µM
GI50 [44]: 0.73 µM
GI50 [45]: 2.46 µM
GI50 [46]: 1.4 µM
GI50 [47]: 1.69 µM
GI50 [48]: 1.63 µM
GI50 [49]: 2.21 µM
GI50 [50]: 2.06 µM
GI50 [51]: 2.11 µM
GI50 [52]: 2.39 µM
GI50 [53]: 1.93 µM
Activity [54]: 21.89%
GI50 [55]: 2.64 µM
Activity [56]: 74.16%
GI50 [57]: 3.08 µM
GI50 [58]: 2.09 µM
GI50 [59]: 1.68 µM
inhibition [60]: Active
GI50 [61]: 2.01 µM
GI50 [62]: 4.35 µM
GI50 [63]: 1.53 µM
GI50 [64]: 2.84 µM
